Measurements as given in patent US12528786B2, “Plasma kallikrein inhibitors” (Merck Sharp & Dohme LLC, priority 2020, dated 2026).
pIC50: −log10 of the molar value.

target: T1, Human plasma kallikrein (Homo sapiens, UniProt P03952); experiment: Kallikrein Assay (fluorogenic substrate hydrolysis, AFC release); type: biochemical; conditions: purified Human plasma kallikrein 0.5 nM; substrate Acetyl-K—P—R-AFC 100 mM; 50 mM HEPES pH 7.4
T1 construct: yields a heavy chain (371 amino acids) and a light chain (248 amino acids); purchased Enzyme Research Laboratories
Outline: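 Enzyme–inhibitor equilibrated before substrate dilution to ≤0.2 Km; human plasma kallikrein at 0.5 nM final, Acetyl-K-P-R-AFC substrate, HEPES pH 7.4 buffer with NaCl, CaCl2, PEG 8000, at room temperature or 37° C. Linear-phase fluorescence rate gives percent inhibition, four-parameter logistic IC50, then Cheng-Prusoff Ki.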

T1 sequence (P03952 391-638 limits assumed): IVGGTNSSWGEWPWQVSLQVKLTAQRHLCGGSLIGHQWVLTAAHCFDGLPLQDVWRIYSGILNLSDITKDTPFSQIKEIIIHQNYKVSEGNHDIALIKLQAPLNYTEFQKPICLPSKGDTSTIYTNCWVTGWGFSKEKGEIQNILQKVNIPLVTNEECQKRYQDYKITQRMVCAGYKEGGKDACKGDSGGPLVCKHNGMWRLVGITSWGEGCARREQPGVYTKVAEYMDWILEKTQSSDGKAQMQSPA
T1 sequence (P03952 20-390 partner limits assumed): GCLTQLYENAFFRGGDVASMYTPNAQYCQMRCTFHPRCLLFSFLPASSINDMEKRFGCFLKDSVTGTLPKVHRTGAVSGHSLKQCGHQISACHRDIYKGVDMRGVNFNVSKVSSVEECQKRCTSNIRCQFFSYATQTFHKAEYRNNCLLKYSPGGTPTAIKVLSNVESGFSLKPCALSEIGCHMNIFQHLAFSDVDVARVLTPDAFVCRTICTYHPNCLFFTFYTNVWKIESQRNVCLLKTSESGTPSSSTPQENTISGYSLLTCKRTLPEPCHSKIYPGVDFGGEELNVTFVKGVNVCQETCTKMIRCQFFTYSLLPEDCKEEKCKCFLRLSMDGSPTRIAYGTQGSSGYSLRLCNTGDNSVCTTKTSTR

pIC50	Compound
8.85	Cc1ccc(C#N)c([C@H]2C[C@@H](NC(=O)c3cn(C(C)c4cnc(N5C[C@H]6C[C@H]6C5=O)c(F)c4C)nn3)C2)n1 (single isomer, unassigned) [Example 136, N-((cis)-3-(3-cyano-6-methylpyridin-2-yl)cyclobutyl)-1-((S or R)-1-(5-fluoro-4-methyl-6-((1R,5S)-2-oxo-3-azabicyclo[3.1.0]hexan-3-yl)pyridin-3-yl)ethyl)-1H-1,2,3-triazole-4-carboxamide]
7.62	Cc1cc([C@](C)(O)c2cc(C(=O)N[C@H]3C[C@@H](c4cc(Cl)ccc4C#N)C3)no2)cnc1N1C[C@H]2C[C@H]2C1=O (single isomer, unassigned) [Example 157]
7.84	Cc1cc(N2C[C@H]3C[C@H]3C2=O)ncc1C(C)n1cc(C(=O)N[C@H]2C[C@@H](c3cc(Cl)ccc3OC(F)F)C2)nn1 (single isomer, unassigned) [Example 70, N-((cis)-3-(5-chloro-2-(difluoromethoxy)phenyl)cyclobutyl)-1-((S or R)-1-(4-methyl-6-((1R,5S)-2-oxo-3-azabicyclo[3.1.0]hexan-3-yl)pyridin-3-yl)ethyl)-1H-1,2,3-triazole-4-carboxamide]
8.57	Cc1ccc(C#N)c([C@H]2C[C@@H](NC(=O)c3cnn(C(C)c4cnc(N5C[C@H]6C[C@H]6C5=O)c(C)c4C)c3)C2)c1 (single isomer, unassigned) [Example 46, N-((cis)-3-(2-cyano-5-methylphenyl)cyclobutyl)-1-((S or R)-1-(4,5-dimethyl-6-((1R,5S)-2-oxo-3-azabicyclo[3.1.0]hexan-3-yl)pyridin-3-yl)ethyl)-1H-pyrazole-4-carboxamide]
8.11	COc1cc(N2C[C@H]3C[C@H]3C2=O)ncc1[C@@H](C)n1cc(C(=O)N[C@H]2C[C@@H](c3cc(Cl)ccc3C#N)C2)cn1 (single isomer, unassigned) [Example 12]
8.55	COc1cc(C(C)n2cc(C(=O)N[C@H]3C[C@@H](c4cc(Cl)ccc4C#N)C3)cn2)cnc1N1C[C@H]2C[C@H]2C1=O (single isomer, unassigned) [Example 14, N-((cis)-3-(5-chloro-2-cyanophenyl)cyclobutyl)-1-((S or R)-1-(5-methoxy-6-((1R,5S)-2-0x0-3-azabicyclo[3.1.0]hexan-3-yl)pyridin-3-yl)ethyl)-1H-pyrazole-4-carboxamide]

Compound	pIC50
N-((cis)-3-(5-chloro-2-cyanophenyl)cyclobutyl)-1-((R)-3-((1R,5S)-2-oxo-3-azabicyclo[3.1.0]hexan-3-yl)-6,7-dihydro-5H-cyclopenta[c]pyridin-7-yl)-1H-1,2,3-triazole-4-carboxamide and N-((cis)-3-(5-chloro-2-cyanophenyl)cyclobutyl)-1-((S)-3-((1R,5S)-2-oxo-3-azabicyclo[3.1.0]hexan-3-yl)-6,7-dihydro-5H-cyclopenta[c]pyridin-7-yl)-1H-1,2,3-triazole-4-carboxamide [Example 153]	7.62
